Drawing on patent US20230026271A1, “Piperazine Compounds for Inhibiting CPS1” (Eisai R&D Management Co., Ltd., priority 2019, published 2023), this text covers IC50 for 19 molecules.

pIC50: −log10 of the molar value.

For orientation: pIC50 means −log10 of the IC50, conventionally taken in molar units.

The test has as its target T1, CPS1 (Homo sapiens, UniProt P31327).
T1 construct: The full length, human CPS1 gene was cloned into pFastBac HTA; His6 (from the pFastBac HTA vector); made in house; host or cells: SF21 insect cells (baculovirus, Bac-to-bac)
T1 sequence (P31327 39-1500): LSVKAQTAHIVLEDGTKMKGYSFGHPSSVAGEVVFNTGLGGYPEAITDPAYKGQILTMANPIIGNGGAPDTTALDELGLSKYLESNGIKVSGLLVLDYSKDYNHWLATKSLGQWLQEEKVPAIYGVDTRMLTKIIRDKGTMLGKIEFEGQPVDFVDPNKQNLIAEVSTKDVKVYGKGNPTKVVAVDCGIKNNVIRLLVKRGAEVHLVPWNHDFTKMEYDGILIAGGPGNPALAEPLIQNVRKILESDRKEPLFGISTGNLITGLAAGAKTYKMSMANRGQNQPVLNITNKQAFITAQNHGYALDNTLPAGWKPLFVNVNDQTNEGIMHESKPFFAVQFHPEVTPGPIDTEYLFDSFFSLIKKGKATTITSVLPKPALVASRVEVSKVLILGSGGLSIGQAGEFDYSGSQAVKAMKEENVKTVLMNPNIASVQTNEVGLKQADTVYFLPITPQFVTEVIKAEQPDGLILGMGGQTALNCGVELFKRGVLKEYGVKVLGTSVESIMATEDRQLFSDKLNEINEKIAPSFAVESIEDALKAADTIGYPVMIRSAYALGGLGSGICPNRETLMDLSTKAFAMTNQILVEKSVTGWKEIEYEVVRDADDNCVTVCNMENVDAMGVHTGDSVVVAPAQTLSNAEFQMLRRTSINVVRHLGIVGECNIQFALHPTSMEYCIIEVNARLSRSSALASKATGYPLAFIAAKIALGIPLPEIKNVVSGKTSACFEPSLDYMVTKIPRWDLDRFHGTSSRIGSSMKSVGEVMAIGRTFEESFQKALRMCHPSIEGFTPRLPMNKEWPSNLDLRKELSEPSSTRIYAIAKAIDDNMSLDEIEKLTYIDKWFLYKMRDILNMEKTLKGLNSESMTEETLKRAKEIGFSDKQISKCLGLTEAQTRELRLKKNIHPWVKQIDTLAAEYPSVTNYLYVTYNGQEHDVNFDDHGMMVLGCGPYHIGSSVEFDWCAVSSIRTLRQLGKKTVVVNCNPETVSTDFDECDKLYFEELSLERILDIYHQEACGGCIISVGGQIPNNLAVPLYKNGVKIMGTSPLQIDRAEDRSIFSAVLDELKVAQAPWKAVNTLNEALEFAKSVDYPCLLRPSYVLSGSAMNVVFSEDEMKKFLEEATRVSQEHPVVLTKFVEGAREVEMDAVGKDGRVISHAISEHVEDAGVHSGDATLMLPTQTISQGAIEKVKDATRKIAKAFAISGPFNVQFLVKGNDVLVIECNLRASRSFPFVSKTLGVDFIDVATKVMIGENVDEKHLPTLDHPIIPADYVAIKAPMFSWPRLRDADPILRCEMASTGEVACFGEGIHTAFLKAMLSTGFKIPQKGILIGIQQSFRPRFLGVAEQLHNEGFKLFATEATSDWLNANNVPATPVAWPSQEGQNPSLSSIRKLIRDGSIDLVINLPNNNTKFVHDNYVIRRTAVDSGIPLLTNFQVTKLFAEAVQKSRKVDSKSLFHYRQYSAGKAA
Put plainly: ADP-Glo endpoint assay measuring the ATPase activity of CPS1. It is filed as biochemical. The following applies: geometric mean of a minimum of two values; 50 nM CPS1, 10 μM ATP, 0.2 mM NAG, 60 min at room temperature; read-out: ADPGlo IC50. The procedure:
CPS1 was expressed and purified from SF21 insect cells. The full length, human CPS1 gene was cloned into pFastBac HTA and baculovirus was generated using the Bac-to-bac expression system from Invitrogen. P3 virus was used to infect SF21 insect cells at a density of 1.5E6 cells/mL at an MOI of 2. Cells were harvested by centrifugation after 60 hrs and the cell pellet resuspended in lysis buffer (50 mM glycyl glycine pH 7.4, 20 mM KCl, 1 mM TCEP, 10% glycerol and 20 mM imidazole with Roche protease inhibitor tablet) before being lysed with 40 strokes of a Dounce homogenizer on ice. The insoluble fraction of the lysate was then cleared by centrifugation at 30,000 rpm for 30 min. 40 mL of supernatant was mixed with 2 mL of Ni NTA beads for 45 min at 4° C. in a 50 mL conical tube.
The beads were washed with 40 mL of wash buffer (50 mM glycyl glycine pH 7.4, 500 mM NaCl, 1 mM TCEP, 10% glycerol and 50 mM imidazole) by centrifugation and resuspension of the beads three times. Bound CPS1 protein was eluted in 6 mL of elution buffer (50 mM glycyl glycine pH 7.4, 500 mM NaCl, 1 mM TCEP, 10% glycerol and 250 mM imidazole) three times. Elution fractions were combined and concentrated using an Amicon Ultra centrifugation filter with a 10,000 molecular weight cut off. Imidazole was removed by repeated concentration and resuspension in storage buffer in the filter device (50 mM glycyl glycine pH 7.4, 500 mM NaCl, 1 mM TCEP and 20% glycerol). CPS1 was concentrated to a final concentration of ˜3 mg/mL before being aliquoted, flash frozen in liquid nitrogen and stored at −80° C.
CPS1 activity was measured and compounds profiled in an endpoint assay measuring the ATPase activity of CPS1 using the ADP-Glo kit from Promega. 50 nM CPS1 was incubated alone or with varying amounts of tested compound from DMSO stocks in assay buffer (50 mM HEPES pH 7.0, 12.5 mM KHCO3, 1.5 mM (NH4)2SO3, 5 mM MgCl2, 50 mM KCl, 1 mM TCEP, 0.01% TritonX 100, 0.0025% BSA and 0.2 mM NAG) for 20 min in a 3 μL volume in a 384-well plate (Corning Cat#3820). The final concentration of DMSO was 0.04%. The reaction was initiated by the addition of 10 μM ATP, bringing the final volume to 6 μL. After 60 min at room temperature, the reaction was terminated with 3 μL ADP-Glo reagent and incubated at room temperature for 30 min. 3 μL of kinase detection reagent was then added and luminescent signal measured on an Envision plate reader after 30 min.
In the case of `COc1ccc(C(=O)N2[C@H](C)CN(C(=O)c3ccc(OC(F)(F)F)cc3F)C[C@H]2C)c(F)c1` [Compound 1, ((2R,6R)-4-(2-Fluoro-4-(trifluoromethoxy)benzoyl)-2,6-dimethylpiperazin-1-yl)(2-fluoro-4-methoxyphenyl)methanone], the pIC50 is 6.17. For `COc1ccc(C(=O)N2[C@H](C)CN(C(=O)c3ccc(OC)c(F)c3F)C[C@H]2C)c(F)c1` [Compound 2, ((2R,6R)-4-(2,3-Difluoro-4-methoxybenzoyl)-2,6-dimethylpiperazin-1-yl)(2-fluoro-4-methoxyphenyl)methanone], the pIC50 was 6.37.

Regarding `COc1ccc(C(=O)N2[C@H](C)CN(C(=O)c3ccc4cc[nH]c4c3)C[C@H]2C)c(F)c1` [Compound 3, ((2R,6R)-4-(1H-Indole-6-carbonyl)-2,6-dimethylpiperazin-1-yl)(2-fluoro-4-methoxyphenyl)methanone], the pIC50 is 6.90. Next, `COc1ccc(C(=O)N2[C@H](C)CN(C(=O)c3ccc(OC)c(F)c3)C[C@H]2C)c(F)c1` [Compound 4, ((2R,6R)-4-(3-Fluoro-4-methoxybenzoyl)-2,6-dimethylpiperazin-1-yl)(2-fluoro-4-methoxyphenyl)methanone]: 6.26. `CCOc1ccc(C(=O)N2C[C@@H](C)N(C(=O)c3ccc(OC)cc3F)[C@H](C)C2)c(F)c1` [Compound 5, ((2R,6R)-4-(4-Ethoxy-2-fluorobenzoyl)-2,6-dimethylpiperazin-1-yl)(2-fluoro-4-methoxyphenyl)methanone]: the pIC50 is 6.86. For `COc1ccc(C(=O)N2[C@H](C)CN(C(=O)c3ccc4c(c3)N(C)CC4)C[C@H]2C)c(F)c1` [Compound 6, ((2R,6R)-2,6-Dimethyl-4-(1-methylindoline-6-carbonyl)piperazin-1-yl)(2-fluoro-4-methoxyphenyl)methanone] the value was 5.12; for `COc1ccc(C(=O)N2[C@H](C)CN(C(=O)c3ccc4cc(C)[nH]c4c3)C[C@H]2C)c(F)c1` [Compound 7, ((2R,6R)-2,6-Dimethyl-4-(2-methyl-1H-indole-6-carbonyl)piperazin-1-yl)(2-fluoro-4-methoxyphenyl)methanone], 6.77; for `COc1ccc(C(=O)N2[C@H](C)CN(C(=O)c3ccc(NC(C)=O)cc3F)C[C@H]2C)c(F)c1` [Compound 8, N-(3-Fluoro-4-((3R,5R)-4-(2-fluoro-4-methoxybenzoyl)-3,5-dimethylpiperazine-1-carbonyl)phenyl)acetamide], 5.56.

As to `COc1ccc(C(=O)N2[C@H](C)CN(C(=O)c3ccc(OC(F)F)cc3F)C[C@H]2C)c(F)c1` [Compound 9, ((2R,6R)-4-(4-(Difluoromethoxy)-2-fluorobenzoyl)-2,6-dimethylpiperazin-1-yl)(2-fluoro-4-methoxyphenyl)methanone], the pIC50 was 6.72. Next, `COc1ccc(C(=O)N2[C@H](C)CN(C(=O)c3cc(F)c(OC)cc3F)C[C@H]2C)c(F)c1` [Compound 10, ((2R,6R)-4-(2,5-Difluoro-4-methoxybenzoyl)-2,6-dimethylpiperazin-1-yl)(2-fluoro-4-methoxyphenyl)methanone]: 6.15; `COc1ccc(C(=O)N2[C@H](C)CN(C(=O)c3ccc(OC)cc3Cl)C[C@H]2C)c(F)c1` [Compound 11, ((2R,6R)-4-(2-Chloro-4-methoxybenzoyl)-2,6-dimethylpiperazin-1-yl)(2-fluoro-4-methoxyphenyl)methanone]: 5.55.

As for `COc1ccc(C(=O)N2[C@H](C)CN(C(=O)c3ccc(F)cc3F)C[C@H]2C)c(F)c1` [Compound 12, ((2R,6R)-4-(2,4-Difluorobenzoyl)-2,6-dimethylpiperazin-1-yl)(2-fluoro-4-methoxyphenyl)methanone], the pIC50 was 5.59. For `COc1ccc(C(=O)N2[C@H](C)CN(C(=O)c3ccc4c[nH]nc4c3)C[C@H]2C)c(F)c1` [Compound 13, ((2R,6R)-4-(2H-Indazole-6-carbonyl)-2,6-dimethylpiperazin-1-yl)(2-fluoro-4-methoxyphenyl)methanone] the value was 6.15; for `COc1ccc(C(=O)N2[C@H](C)CN(C(=O)c3ccc(C)cc3F)C[C@H]2C)c(F)c1` [Compound 14, ((3R,5R)-4-(2-Fluoro-4-methoxybenzoyl)-3,5-dimethylpiperazin-1-yl)(2-fluoro-4-methylphenyl)methanone], 5.66; for `COc1ccc(C(=O)N2[C@H](C)CN(C(=O)c3c(F)cc(OC)cc3F)C[C@H]2C)c(F)c1` [Compound 15, ((2R,6R)-4-(2,6-Difluoro-4-methoxybenzoyl)-2,6-dimethylpiperazin-1-yl)(2-fluoro-4-methoxyphenyl)methanone], 6.38. For `COc1ccc(C(=O)N2[C@H](C)CN(C(=O)c3c(F)cc(SC)cc3F)C[C@H]2C)c(F)c1` [Compound 16, ((2R,6R)-4-(2,6-Difluoro-4-(methylthio)benzoyl)-2,6-dimethylpiperazin-1-yl)(2-fluoro-4-methoxyphenyl)methanone] the value was 6.26; for `COc1ccc(C(=O)N2[C@H](C)CN(C(=O)c3cc(Cl)c4cc[nH]c4c3)C[C@H]2C)c(F)c1` [Compound 17, (4-Chloro-1H-indol-6-yl)((3R,5R)-4-(2-fluoro-4-methoxybenzoyl)-3,5-dimethylpiperazin-1-yl)methanone], 6.28; for `COc1ccc(C(=O)N2[C@H](C)CN(C(=O)c3ccc4c(c3)CCCO4)C[C@H]2C)c(F)c1` [Compound 18, Chroman-6-yl((3R,5R)-4-(2-fluoro-4-methoxybenzoyl)-3,5-dimethylpiperazin-1-yl)methanone], 5.23. For `COc1ccc(C(=O)N2[C@H](C)CN(C(=O)c3ccc4cc[nH]c4n3)C[C@H]2C)c(F)c1` [Compound 19, ((2R,6R)-2,6-Dimethyl-4-(1H-pyrrolo[2,3-b]pyridine-6-carbonyl)piperazin-1-yl)(2-fluoro-4-methoxyphenyl)methanone] the value was 5.48.
